In US6737383B1, “Herbicidal oxadiazolidines” (priority 1999, dated 2004):

Tests used:
[1] = tested on: bedstraw; test: Test B pre/postemergence bedstraw; format: in vivo, Galium aparine; settings: Preemergence; for Bedstraw plant response rating: scale 0 to 10, 0 is no effect, 10 is complete control
Method in brief: (§1)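 Herbicidal effect was estimated by eye on a ten-point control scale after plants spent twelve to sixteen days in a greenhouse following soil or foliar treatment. Foliar sprays targeted plants at one to four leaves; all doses were formulated in a non-phytotoxic solvent with surfactant.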

[2] = tested on: blackgrass; test: Test B pre/postemergence blackgrass; format: in vivo, Alopecurus myosuroides
Method in brief: as §1

[3] = tested on: surinam grass; test: Test B pre/postemergence surinam grass; format: in vivo, Brachiaria decumbens
Method in brief: as §1

[4] = tested on: cocklebur; test: Test B pre/postemergence cocklebur; format: in vivo, Xanthium strumarium
Method in brief: as §1

[5] = tested on: corn; test: Test B pre/postemergence corn; format: in vivo, Zea mays
Method in brief: as §1

[6] = tested on: crabgrass; test: Test B pre/postemergence crabgrass; format: in vivo, Digitaria sanguinalis
Method in brief: as §1

[7] = tested on: giant foxtail; test: Test B pre/postemergence giant foxtail; format: in vivo, Setaria faberii
Method in brief: as §1

[8] = tested on: morningglory; test: Test B pre/postemergence morningglory; format: in vivo, Ipomoea hederacea
Method in brief: as §1

[9] = tested on: pigweed; test: Test B pre/postemergence pigweed; format: in vivo, Amaranthus retroflexus
Method in brief: as §1

[10] = tested on: rape; test: Test B pre/postemergence rape; format: in vivo, Brassica napus
Method in brief: as §1

[11] = tested on: soybean; test: Test B pre/postemergence soybean; format: in vivo, Glycine max
Method in brief: as §1

[12] = tested on: sugar beet; test: Test B pre/postemergence sugar beet; format: in vivo, Beta vulgaris
Method in brief: as §1

[13] = tested on: velvetleaf; test: Test B pre/postemergence velvetleaf; format: in vivo, Abutilon theophrasti
Method in brief: as §1

[14] = tested on: wheat; test: Test B pre/postemergence wheat; format: in vivo, Triticum aestivum
Method in brief: as §1

[15] = tested on: wild oat; test: Test B pre/postemergence wild oat; format: in vivo, Avena fatua
Method in brief: as §1

[16] = tested on: purple nutsedge; test: Test B pre/postemergence purple nutsedge; format: in vivo, Cyperus rotundus
Method in brief: as §1

[17] = tested on: rice; test: Test B flood test rice; format: in vivo, Oryza sativa
Method in brief: (§2)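 Plants were grown to the 2-leaf stage before treatment with test chemical, then held in a greenhouse for twelve to sixteen days. Injury was visually rated against untreated controls on a 0–10 scale, where 0 is no effect and 10 is complete control.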

[18] = tested on: smallflower flatsedge; test: Test B flood test smallflower flatsedge; format: in vivo, Cyperus difformis
Method in brief: as §2

[19] = tested on: duck salad; test: Test B flood test duck salad; format: in vivo, Heteranthera limosa
Method in brief: as §2

[20] = tested on: bamyardgrass; test: Test B flood test barnyardgrass; format: in vivo, Echinochloa crus-galli
Method in brief: as §2

[21] = Postemergence, Rate 62 g/ha, scale of 0 to 10, 0 is no effect, 10 is complete control
[22] = Postemergence, Rate 125 g/ha, scale 0 to 10, 0 is no effect, 10 is complete control
[23] = Postemergence, Rate 250 g/ha, scale 0 to 10
[24] = Postemergence, Rate 500 g/ha, scale 0 to 10, 0 is no effect, 10 is complete control
[25] = Preemergence, Rate 62 g/ha, scale of 0 to 10 where 0 is no effect and 10 is complete control
[26] = Preemergence, Rate 125 g/ha, scale 0 to 10, 0 is no effect, 10 is complete control
[27] = Preemergence, Rate 250 g/ha, scale 0 to 10, 0 is no effect, 10 is complete control
[28] = Preemergence, Rate 500 g/ha, scale of 0 to 10 where 0 is no effect and 10 is complete control
[29] = Rate 62 g/ha, flood test species, Pre-emergence, visual evaluation after twelve to sixteen days
[30] = Rate 125 g/ha, under heading Pre-emergence, flood test species, visual evaluation after twelve to sixteen days
[31] = Rate 250 g/ha, Pre-emergence (flood test species), scale 0 to 10, 0 is no effect, 10 is complete control
[32] = Rate 500 g/ha, Pre-emergence section of Table B, 0 to 10 scale (0 no effect, 10 complete control)

CC(C)N(C(=O)n1oc(=O)n(CC2CC2)c1=O)c1ccc(F)cc1F [Compound 509]
Plant response rating, Bedstraw ([1]; Rate 62 g/ha, scale of 0 to 10 where 0 is no effect and 10 is complete control): 0
Bedstraw plant response rating ([1]; Rate 125 g/ha): 0
Bedstraw plant response rating ([1]; Rate 250 g/ha): 10
Bedstraw plant response rating ([1]; Rate 500 g/ha): 9
Blackgrass plant response rating [2, 21]: 2
Blackgrass plant response rating [2, 22]: 5
Blackgrass plant response rating [2, 23]: 6
Plant response rating, Blackgrass [2, 24]: 9
Plant response rating, Blackgrass [2, 25]: 5
Blackgrass plant response rating [2, 26]: 7
Blackgrass plant response rating [2, 27]: 8
Blackgrass plant response rating [2, 28]: 10
B. signalgrass plant response rating [3, 21]: 0
B. signalgrass plant response rating [3, 22]: 0
B. signalgrass plant response rating ([3]; Postemergence, Rate 250 g/ha, scale 0 to 10, 0 no effect, 10 complete control): 2
Plant response rating, B. signalgrass [3, 24]: 7
Plant response rating, B. signalgrass [3, 25]: 2
B. signalgrass plant response rating [3, 26]: 3
B. signalgrass plant response rating [3, 27]: 8
B. signalgrass plant response rating ([3]; Preemergence, Rate 500 g/ha, scale 0 to 10, 0 is no effect, 10 is complete control): 9
Cocklebur plant response rating [4, 21]: 0
Cocklebur plant response rating [4, 22]: 0
Cocklebur plant response rating [4, 23]: 0
Plant response rating, Cocklebur [4, 24]: 4
Plant response rating, Cocklebur [4, 25]: 0
Cocklebur plant response rating [4, 26]: 0
Cocklebur plant response rating [4, 27]: 0
Cocklebur plant response rating [4, 28]: 5
Corn plant response rating [5, 21]: 0
Corn plant response rating [5, 22]: 0
Corn plant response rating [5, 23]: 0
Plant response rating, Corn [5, 24]: 1
Plant response rating, Corn [5, 25]: 0
Corn plant response rating [5, 26]: 0
Corn plant response rating [5, 28]: 6
Crabgrass plant response rating [6, 21]: 3
Crabgrass plant response rating [6, 22]: 9
Crabgrass plant response rating [6, 23]: 9
Plant response rating, Crabgrass [6, 24]: 9
Plant response rating, Crabgrass [6, 25]: 3
Crabgrass plant response rating [6, 26]: 7
Crabgrass plant response rating [6, 28]: 10
Giant foxtail plant response rating [7, 21]: 3
Giant foxtail plant response rating [7, 22]: 7
Plant response rating, Giant foxtail [7, 24]: 8
Plant response rating, Giant foxtail [7, 25]: 9
Giant foxtail plant response rating [7, 26]: 9
Giant foxtail plant response rating [7, 28]: 10
Plant response rating, Morningglory [8, 24]: 5
Plant response rating, Morningglory [8, 25]: 0
Morningglory plant response rating [8, 26]: 0
Morningglory plant response rating [8, 28]: 3
Redroot pigweed plant response rating [9, 21]: 0
Redroot pigweed plant response rating [9, 22]: 0
Plant response rating, Redroot pigweed [9, 24]: 5
Plant response rating, Redroot pigweed [9, 25]: 0
Redroot pigweed plant response rating [9, 26]: 0
Redroot pigweed plant response rating [9, 28]: 10
Rape plant response rating [10, 21]: 0
Rape plant response rating [10, 22]: 0
Plant response rating, Rape [10, 24]: 4
Plant response rating, Rape [10, 25]: 0
Rape plant response rating [10, 26]: 0
Rape plant response rating [10, 28]: 10
Soybean plant response rating [11, 21]: 1
Soybean plant response rating [11, 22]: 3
Plant response rating, Soybean [11, 24]: 5
Plant response rating, Soybean [11, 25]: 0
Soybean plant response rating [11, 26]: 0
Sugarbeets plant response rating [12, 21]: 0
Sugarbeets plant response rating [12, 22]: 0
Plant response rating, Sugarbeets [12, 24]: 7
Plant response rating, Sugarbeets [12, 25]: 0
Sugarbeets plant response rating [12, 26]: 4
Sugarbeets plant response rating [12, 28]: 7
Velvetleaf plant response rating [13, 21]: 2
Velvetleaf plant response rating [13, 22]: 4
Plant response rating, Velvetleaf [13, 24]: 7
Plant response rating, Velvetleaf [13, 25]: 3
Velvetleaf plant response rating [13, 26]: 6
Velvetleaf plant response rating [13, 28]: 8
Wheat plant response rating [14, 21]: 0
Wheat plant response rating [14, 22]: 0
Plant response rating, Wheat [14, 24]: 2
Plant response rating, Wheat [14, 25]: 0
Wheat plant response rating [14, 26]: 0
Wheat plant response rating [14, 28]: 7
Wild oats plant response rating [15, 21]: 0
Wild oats plant response rating [15, 22]: 0
Plant response rating, Wild oats [15, 24]: 8
Plant response rating, Wild oats [15, 25]: 0
Wild oats plant response rating [15, 26]: 2
Wild oats plant response rating [15, 28]: 9
Nutsedge plant response rating [16, 21]: 0
Nutsedge plant response rating [16, 22]: 0
Plant response rating, Nutsedge [16, 25]: 0
Nutsedge plant response rating [16, 26]: 0
Nutsedge plant response rating [16, 28]: 0
Plant response rating, Rice (0 to 10 scale, 0 is no effect, 10 is complete control) [17, 29]: 0
Rice plant response rating (0 to 10 scale, 0 is no effect, 10 is complete control) [17, 30]: 0
Rice plant response rating [17, 31]: 0
Rice plant response rating [17, 32]: 0
Plant response rating, S. Flatsedge (0 to 10 scale, 0 is no effect, 10 is complete control) [18, 29]: 0
S. Flatsedge plant response rating (0 to 10 scale, 0 is no effect, 10 is complete control) [18, 30]: 0
S. Flatsedge plant response rating [18, 31]: 0
S. Flatsedge plant response rating [18, 32]: 0
Plant response rating, Ducksalad (0 to 10 scale, 0 is no effect, 10 is complete control) [19, 29]: 0
Ducksalad plant response rating (0 to 10 scale, 0 is no effect, 10 is complete control) [19, 30]: 0
Ducksalad plant response rating [19, 31]: 0
Ducksalad plant response rating [19, 32]: 0
Plant response rating, Barnyardgrass (0 to 10 scale, 0 is no effect, 10 is complete control) [20, 29]: 0
Barnyardgrass plant response rating (0 to 10 scale, 0 is no effect, 10 is complete control) [20, 30]: 0
Barnyardgrass plant response rating [20, 31]: 0
Barnyardgrass plant response rating [20, 32]: 0
